Test [1] deals with T1, h-TGR5 (Homo sapiens, UniProt Q8TDU6).
T1 sequence (Q8TDU6 1-330): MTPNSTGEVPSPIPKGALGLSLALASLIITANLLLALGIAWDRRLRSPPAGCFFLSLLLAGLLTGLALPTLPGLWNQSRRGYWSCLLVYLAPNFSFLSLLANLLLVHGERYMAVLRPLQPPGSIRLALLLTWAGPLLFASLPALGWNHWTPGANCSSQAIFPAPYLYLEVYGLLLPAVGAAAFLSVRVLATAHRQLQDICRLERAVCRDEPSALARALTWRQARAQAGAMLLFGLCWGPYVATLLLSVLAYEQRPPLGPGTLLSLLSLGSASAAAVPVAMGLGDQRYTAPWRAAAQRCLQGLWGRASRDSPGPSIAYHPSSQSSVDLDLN
In words: TGR5 cAMP Assay using Cisbio cAMP Dynamic 2 htrf assay kit. The format is cell-based. To be noted: hTGR5CRE-luc HEK 293 cells.

Test [2] addresses T2, human TGR5 (h-TGR5) (Homo sapiens, UniProt Q8TDU6).
T2 sequence (Q8TDU6 1-330): T1 sequence (Q8TDU6 1-330)
In words: TGR5/CRE-Luciferase Assay. The format is cell-based. As to conditions: HEK 293 hTGR5/CRE-Luc cells, 6 hours incubation, read-out: CRE-Luc Agonist (EC50). The essentials: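 HEK 293 CRE-Luciferase cells stably expressing the receptor, plated in DMEM 18-20 h before assay, then exposed to serially diluted compounds (DMEM with 5% DMSO) for 6 h. Luciferase read-out after lysis; EC50 from dose-response.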

On to `COc1cc(C(C)(C)c2cnc(SCc3c(F)cc(S(=O)(=O)N(CCC[N+](C)(C)C)CC(=O)O)cc3Cl)n2-c2ccc(F)cc2)ccc1F` [Compound 14n, 3-[(carboxymethyl){[3-chloro-5-fluoro-4-({[5-{1-[4-fluoro-3-(methyloxy)phenyl]-1-methylethyl}-1-(4-fluorophenyl)-1H-imidazol-2-yl]thio}methyl)phenyl]sulfonyl}amino]-N,N,N-trimethylpropan-1-aminium], for which the EC50 in test [1] and in test [2] was < 100 nM throughout.
On to `COc1cc(C(C)(C)c2cnc(SCc3c(F)cc(S(=O)(=O)N(CCCC[N+](C)(C)C)CC(=O)O)cc3F)n2-c2ccc(F)cc2)ccc1Cl` [Compound 14o, 4-[(carboxymethyl){[4-({[5-{1-[4-chloro-3-(methyloxy)phenyl]-1-methylethyl}-1-(4-fluorophenyl)-1H-imidazol-2-yl]thio}methyl)-3,5-difluorophenyl]sulfonyl}amino]-N,N,N-trimethylbutan-1-aminium], for which the EC50 in test [1] and in test [2] was < 100 nM each time.
Regarding `COc1cc(C(C)(C)c2cnc(SCc3c(F)cc(S(=O)(=O)N(CCC[N+](C)(C)C)[C@H](C(=O)O)C(C)C)cc3F)n2-c2ccc(F)cc2)ccc1Cl` [Compound 14p, 3-([(1S)-1-carboxy-2-methylpropyl]{[4-({[5-{1-[4-chloro-3-(methyloxy)phenyl]-1-methylethyl}-1-(4-fluorophenyl)-1H-imidazol-2-yl]thio}methyl)-3,5-difluorophenyl]sulfonyl}amino)-N,N,N-trimethylpropan-1-aminium], the EC50 in test [1] and in test [2] was < 100 nM throughout.
For `COc1cc(C(C)(C)c2cnc(SCc3c(F)cc(S(=O)(=O)N(CCC[N+](C)(C)C)[C@@H](C(=O)O)C(C)C)cc3F)n2-c2ccc(F)cc2)ccc1Cl` [Compound 14q, 3-([(1R)-1-carboxy-2-methylpropyl]{[4-({[5-{1-[4-chloro-3-(methyloxy)phenyl]-1-methylethyl}-1-(4-fluorophenyl)-1H-imidazol-2-yl]thio}methyl)-3,5-difluorophenyl]sulfonyl}amino)-N,N,N-trimethylpropan-1-aminium], the concentration giving a half-maximal response (EC50) in test [1] and in test [2] was < 100 nM each time.
For `COc1cc(C(C)(C)c2cnc(SCc3c(F)cc(S(=O)(=O)N(CCC[N+](C)(C)C)CCC(=O)O)cc3F)n2-c2ccc(F)cc2)ccc1Cl` [Compound 14r, 3-[(2-carboxyethyl){[4-({[5-{1-[4-chloro-3-(methyloxy)phenyl]-1-methylethyl}-1-(4-fluorophenyl)-1H-imidazol-2-yl]thio}methyl)-3,5-difluorophenyl]sulfonyl}amino]-N,N,N-trimethylpropan-1-aminium], the EC50 in test [1] and in test [2] was < 100 nM each time.
In the case of `COc1cc(C(C)(C)c2cnc(SCc3c(F)cc(S(=O)(=O)N(CCC[N+](C)(C)C)CC(=O)O)cc3Cl)n2-c2ccc(F)cc2)ccc1Cl` [Compound 14s, 3-[(carboxymethyl){[3-chloro-4-({[5-{1-[4-chloro-3-(methyloxy)phenyl]-1-methylethyl}-1-(4-fluorophenyl)-1H-imidazol-2-yl]thio}methyl)-5-fluorophenyl]sulfonyl}amino]-N,N,N-trimethylpropan-1-aminium], the 50% effective concentration (EC50) in test [1] and in test [2] was < 100 nM throughout.
On to `COc1cc(C(C)(C)c2cnc(SCc3c(F)cc(S(=O)(=O)N(CCC[N+](C)(C)C)[C@@H](CO)C(=O)O)cc3F)n2-c2ccc(F)cc2)ccc1Cl` [Compound 14t, 3-([(1S)-1-carboxy-2-hydroxyethyl]{[4-({[5-{1-[4-chloro-3-(methyloxy)phenyl]-1-methylethyl}-1-(4-fluorophenyl)-1H-imidazol-2-yl]thio}methyl)-3,5-difluorophenyl]sulfonyl}amino)-N,N,N-trimethylpropan-1-aminium], for which the EC50 in test [1] and in test [2] was < 100 nM in each case.
Turning to `COc1cc(C(C)(C)c2cnc(SCc3c(F)cc(S(=O)(=O)N(CCC[N+](C)(C)C)CCC(=O)O)cc3Cl)n2-c2ccc(F)cc2)ccc1Cl` [Compound 14u, 3-[(2-carboxyethyl){[3-chloro-4-({[5-{1-[4-chloro-3-(methyloxy)phenyl]-1-methylethyl}-1-(4-fluorophenyl)-1H-imidazol-2-yl]thio}methyl)-5-fluorophenyl)sulfonyl}amino]-N,N,N-trimethylpropan-1-aminium], the half-maximal effective concentration (EC50) in test [1] and in test [2] was < 100 nM each time.
As to `COc1cc(C(C)(C)c2cnc(SCc3c(F)cc(S(=O)(=O)N(CCC[N+](C)(C)C)Cc4cccc(C(=O)O)c4)cc3F)n2-c2ccc(F)cc2)ccc1Cl` [Compound 14v, 3-([(3-carboxyphenyl)methyl]{[4-({[5-{1-[4-chloro-3-(methyloxy)phenyl]-1-methylethyl}-1-(4-fluorophenyl)-1H-imidazol-2-yl]thio}methyl)-3,5-difluorophenyl]sulfonyl}amino)-N,N,N-trimethylpropan-1-aminium], the EC50 in test [1] and in test [2] was < 100 nM throughout.
As for `CC[C@@H](C(=O)O)N(CCC[N+](C)(C)C)S(=O)(=O)c1cc(F)c(CSc2ncc(C(C)(C)c3ccc(Cl)c(OC)c3)n2-c2ccc(F)cc2)c(Cl)c1` [Compound 14w, 3-([(1S)-1-carboxypropyl]{[3-chloro-4-({[5-{1-[4-chloro-3-(methyloxy)phenyl]-1-methylethyl}-1-(4-fluorophenyl)-1H-imidazol-2-yl]thio}methyl)-5-fluorophenyl]sulfonyl}amino)-N,N,N-trimethylpropan-1-aminium], the EC50 in test [1] and in test [2] was < 100 nM throughout.
In the case of `COc1cc(C(C)(C)c2cnc(SCc3c(F)cc(S(=O)(=O)N(CCC[N+](C)(C)C)[C@@H](C)C(=O)O)cc3Cl)n2-c2ccc(F)cc2)ccc1Cl` [Compound 14x, 3-([(1S)-1-carboxyethyl]{[3-chloro-4-({[5-{1-[4-chloro-3-(methyloxy)phenyl]-1-methylethyl}-1-(4-fluorophenyl)-1H-imidazol-2-yl]thio}methyl)-5-fluorophenyl]sulfonyl}amino)-N,N,N-trimethylpropan-1-aminium], the EC50 in test [1] and in test [2] was < 100 nM each time.
In the case of `COc1cc(C(C)(C)c2cnc(SCc3c(F)cc(S(=O)(=O)N(CCC[N+](C)(C)C)[C@H](C)C(=O)O)cc3Cl)n2-c2ccc(F)cc2)ccc1Cl` [Compound 14y, 3-([(1R)-1-carboxyethyl]{[3-chloro-4-({[5-{1-[4-chloro-3-(methyloxy)phenyl]-1-methylethyl}-1-(4-fluorophenyl)-1H-imidazol-2-yl]thio}methyl)-5-fluorophenyl]sulfonyl}amino)-N,N,N-trimethylpropan-1-aminium], the EC50 in test [1] and in test [2] was < 100 nM throughout.
Turning to `COc1cc(C(C)(C)c2cnc(SCc3c(F)cc(S(=O)(=O)N(CCC[N+](C)(C)C)C4(C(=O)O)CC4)cc3Cl)n2-c2ccc(F)cc2)ccc1Cl` [Compound 14z, 3-[(1-carboxycyclopropyl){[3-chloro-4-({[5-{1-[4-chloro-3-(methyloxy)phenyl]-1-methylethyl}-1-(4-fluorophenyl)-1H-imidazol-2-yl]thio}methyl)-5-fluorophenyl]sulfonyl}amino]-N,N,N-trimethylpropan-1-aminium], the EC50 in test [1] and in test [2] was < 100 nM in each case.
As for `COc1cc(C(C)(C)c2cnc(SCc3c(F)cc(S(=O)(=O)N(CC4CC[N+](C)(C)CC4)[C@H](C)C(=O)O)cc3F)n2-c2ccc(F)cc2)ccc1Cl` [Compound 15, 2,2,2-trifluoroacetate], the EC50 in test [1] and in test [2] was < 100 nM each time.
For `COc1cc(C(C)(C)c2cnc(SCc3c(F)cc(S(=O)(=O)N(CCC[n+]4ccccc4)[C@H](C)C(=O)O)cc3Cl)n2-c2ccc(F)cc2)ccc1Cl` [Compound 15a, (R)-1-(3-(N-(1-carboxyethyl)-3-chloro-4-((5-(2-(4-chloro-3-methoxyphenyl)propan-2-yl)-1-(4-fluorophenyl)-1H-imidazol-2-ylthio)methyl)-5-fluorophenylsulfonamido)propyl)pyridinium chloride], the EC50 in test [1] and in test [2] was < 100 nM in each case.
For `COc1cc(C(C)(C)c2cnc(SCc3c(F)cc(S(=O)(=O)N(CCC[n+]4ccn(C)c4)[C@H](C)C(=O)O)cc3Cl)n2-c2ccc(F)cc2)ccc1Cl` [Compound 15b, (R)-3-(3-(N-(1-carboxyethyl)-3-chloro-4-((5-(2-(4-chloro-3-methoxyphenyl)propan-2-yl)-1-(4-fluorophenyl)-1H-imidazol-2-ylthio)methyl)-5-fluorophenylsulfonamido)propyl)-1-methyl-1H-imidazol-3-ium chloride], the EC50 in test [1] and in test [2] was < 100 nM each time.
For `COc1cc(C(C)(C)c2cnc(SCc3c(F)cc(S(=O)(=O)N(C)[C@@H](CCC[N+](C)(C)C)C(=O)O)cc3F)n2-c2ccc(F)cc2)ccc1Cl` [Compound 16, (S)-4-carboxy-4-(4-((5-(2-(4-chloro-3-methoxyphenyl)propan-2-yl)-1-(4-fluorophenyl)-1H-imidazol-2-ylthio)methyl)-3,5-difluoro-N-methylphenylsulfonamido)-N,N,N-trimethylbutan-1-aminium 2,2,2-trifluoroacetate], the EC50 in test [1] and in test [2] was < 100 nM each time.
On to `COc1cc(C(C)(C)c2cnc(SCc3c(F)cc(S(=O)(=O)N(C)[C@@H](CCC[N+](C)(C)C)C(=O)[O-])cc3F)n2-c2ccc(F)cc2)ccc1Cl` [Compound 17], for which the EC50 in test [1] and in test [2] was < 100 nM each time.

One may read the EC50 as the concentration at which the effect is half-maximal.

Values taken from patent publication US8846739B2, “TGR5 agonists” (Exelixis Patent Company LLC, priority 2009, dated 2014).
